Reference: the NIST ThermoML archive (doi:10.1016/j.jct.2015.07.042)
± gives the expanded uncertainty stated by the source.

Assay: activity coefficient (dimensionless); of the first substance listed, at infinite dilution; xn = mol fraction of the nth substance listed
Settings: 101 kPa, Liquid, Chromatography, x1 = 0

Row | Structure (SMILES) | activity coefficient (358.15 K) | activity coefficient (368.15 K) | activity coefficient (378.15 K) | activity coefficient (388.15 K) | activity coefficient (398.15 K) | activity coefficient (408.15 K) | activity coefficient (418.15 K) | activity coefficient (428.15 K)
1 | CCCCCCCCC [nonane] + CCCCn1cc[n+](C)c1.[Cl-] | 476 ± 33 | 433 ± 30 | 394 ± 27 | 376 ± 26 |  |  |  | 
2 | Cc1ccccc1 [toluene] + CCCCn1cc[n+](C)c1.COP(=O)([O-])OC | 3.86 ± 0.26 | 3.99 ± 0.27 | 4.09 ± 0.28 | 4.29 ± 0.29 |  |  |  | 
3 | C1CCCC1 [cyclopentane] + CCCCn1cc[n+](C)c1.[Cl-] | 38.7 ± 2.6 | 36.2 ± 2.5 | 33.5 ± 2.3 | 31.8 ± 2.2 |  |  |  | 
4 | CCCC(=O)OC [methyl butanoate] + CCCCn1cc[n+](C)c1.CS(=O)(=O)[O-] | 6.79 ± 0.46 | 7.21 ± 0.49 | 7.39 ± 0.5 | 7.84 ± 0.53 |  |  |  | 
5 | Cc1ccccc1C [1,2-dimethylbenzene] + CCCCn1cc[n+](C)c1.[Cl-] | 11.6 ± 0.79 | 11.7 ± 0.8 | 11.9 ± 0.81 | 12.3 ± 0.84 |  |  |  | 
6 | CO [methanol] + CCCCn1cc[n+](C)c1.[Cl-] |  |  |  |  | 0.156 ± 0.029 | 0.166 ± 0.029 | 0.176 ± 0.029 | 0.191 ± 0.029
7 | CCCOCCC [dipropyl ether] + CCCCn1cc[n+](C)c1.CS(=O)(=O)[O-] | 38.1 ± 2.6 | 38.7 ± 2.6 | 38.9 ± 2.7 | 39.4 ± 2.7 |  |  |  | 
8 | C=Cc1ccccc1 [styrene] + CCCCn1cc[n+](C)c1.COP(=O)([O-])OC | 2.79 ± 0.19 | 2.93 ± 0.2 | 3.06 ± 0.21 | 3.26 ± 0.22 |  |  |  | 
9 | Cc1ccc(C)cc1 [1,4-dimethylbenzene] + CCCCn1cc[n+](C)c1.CS(=O)(=O)[O-] | 9.03 ± 0.62 | 9.2 ± 0.63 | 9.37 ± 0.64 | 9.71 ± 0.66 |  |  |  | 
10 | C=CCCCCC [1-heptene] + CCCCn1cc[n+](C)c1.[Cl-] | 88.9 ± 6.1 | 83.8 ± 5.7 | 79.3 ± 5.4 | 77.2 ± 5.3 |  |  |  | 
11 | C#CCCCCCC [1-octyne] + CCCCn1cc[n+](C)c1.CS(=O)(=O)[O-] | 17.8 ± 1.2 | 18.6 ± 1.3 | 19.5 ± 1.3 | 20.4 ± 1.4 |  |  |  | 
12 | CCCOCCC [dipropyl ether] + CCCCn1cc[n+](C)c1.[Cl-] | 57.4 ± 3.9 | 55.3 ± 3.8 | 52.8 ± 3.6 | 51.9 ± 3.6 |  |  |  | 
13 | CCOC(C)=O [ethyl acetate] + CCCCn1cc[n+](C)c1.CS(=O)(=O)[O-] | 4.76 ± 0.32 | 4.88 ± 0.33 | 5 ± 0.34 | 5.28 ± 0.36 |  |  |  | 
14 | CCC[N+](=O)[O-] [1-nitropropane] + CCCCn1cc[n+](C)c1.COP(=O)([O-])OC | 1.5 ± 0.1 | 1.56 ± 0.1 | 1.62 ± 0.11 | 1.72 ± 0.12 |  |  |  | 
15 | CCCC(C)=O [pentan-2-one] + CCCCn1cc[n+](C)c1.[Cl-] | 7.59 ± 0.52 | 7.71 ± 0.53 | 7.78 ± 0.53 | 8.01 ± 0.55 |  |  |  | 
16 | CCC(C)O (stereo not given) [butan-2-ol] + CCCCn1cc[n+](C)c1.COP(=O)([O-])OC |  |  |  |  | 0.327 ± 0.032 | 0.365 ± 0.033 | 0.406 ± 0.034 | 0.451 ± 0.036
17 | Cc1ccccc1 [toluene] + CCCCn1cc[n+](C)c1.CS(=O)(=O)[O-] | 5.32 ± 0.36 | 5.45 ± 0.37 | 5.68 ± 0.39 | 5.84 ± 0.4 |  |  |  | 
18 | C1=CCCCC1 [cyclohexene] + CCCCn1cc[n+](C)c1.CS(=O)(=O)[O-] | 18.4 ± 1.3 | 18.6 ± 1.3 | 18.7 ± 1.3 | 19 ± 1.3 |  |  |  | 

Row | Structure (SMILES) | activity coefficient (358.15 K) | activity coefficient (368.15 K) | activity coefficient (378.15 K) | activity coefficient (388.15 K) | activity coefficient (398.15 K) | activity coefficient (408.15 K) | activity coefficient (418.15 K) | activity coefficient (428.15 K)
19 | CCCC(C)=O [pentan-2-one] + CCCCn1cc[n+](C)c1.CS(=O)(=O)[O-] | 4.5 ± 0.31 | 4.59 ± 0.31 | 4.76 ± 0.32 | 4.91 ± 0.33 |  |  |  | 
20 | CCCC(C)=O [pentan-2-one] + CCCCn1cc[n+](C)c1.COP(=O)([O-])OC | 3.63 ± 0.25 | 3.7 ± 0.25 | 3.78 ± 0.26 | 3.94 ± 0.27 |  |  |  | 
21 | O [water] + CCCCn1cc[n+](C)c1.COP(=O)([O-])OC |  |  |  |  | 0.073 ± 0.03 | 0.081 ± 0.03 | 0.092 ± 0.03 | 0.101 ± 0.03
22 | CCCCCCCC [octane] + CCCCn1cc[n+](C)c1.[Cl-] | 331 ± 23 | 302 ± 21 | 268 ± 18 | 258 ± 18 |  |  |  | 
23 | C1CCOC1 [tetrahydrofuran] + CCCCn1cc[n+](C)c1.CS(=O)(=O)[O-] | 3.41 ± 0.23 | 3.48 ± 0.24 | 3.59 ± 0.24 | 3.72 ± 0.25 |  |  |  | 
24 | C1CCCCCCC1 [cyclooctane] + CCCCn1cc[n+](C)c1.COP(=O)([O-])OC | 18.8 ± 1.3 | 18.2 ± 1.2 | 17.7 ± 1.2 | 17.3 ± 1.2 |  |  |  | 
25 | C1CCCCCCC1 [cyclooctane] + CCCCn1cc[n+](C)c1.CS(=O)(=O)[O-] | 57.1 ± 3.9 | 55.7 ± 3.8 | 54.4 ± 3.7 | 53.6 ± 3.7 |  |  |  | 
26 | C1CCCCCC1 [cycloheptane] + CCCCn1cc[n+](C)c1.[Cl-] | 62.7 ± 4.3 | 58.8 ± 4 | 55.4 ± 3.8 | 53.6 ± 3.7 |  |  |  | 
27 | CCOC(C)=O [ethyl acetate] + CCCCn1cc[n+](C)c1.COP(=O)([O-])OC | 3.81 ± 0.26 | 3.91 ± 0.27 | 4.01 ± 0.27 | 4.18 ± 0.28 |  |  |  | 
28 | CCC(=O)CC [pentan-3-one] + CCCCn1cc[n+](C)c1.[Cl-] | 7.6 ± 0.52 | 7.72 ± 0.53 | 7.78 ± 0.53 | 7.97 ± 0.54 |  |  |  | 
29 | C1CCCCC1 [cyclohexane] + CCCCn1cc[n+](C)c1.CS(=O)(=O)[O-] | 35.2 ± 2.4 | 34.5 ± 2.4 | 33.9 ± 2.3 | 33.8 ± 2.3 |  |  |  | 
30 | c1ccncc1 [pyridine] + CCCCn1cc[n+](C)c1.CS(=O)(=O)[O-] | 10.9 ± 0.75 | 10.8 ± 0.74 | 10.6 ± 0.72 | 10.5 ± 0.71 |  |  |  | 
31 | C#CCCCCCC [1-octyne] + CCCCn1cc[n+](C)c1.COP(=O)([O-])OC | 6.04 ± 0.41 | 6.22 ± 0.42 | 6.48 ± 0.44 | 6.74 ± 0.46 |  |  |  | 
32 | CC#N [acetonitrile] + CCCCn1cc[n+](C)c1.COP(=O)([O-])OC | 0.88 ± 0.06 | 0.92 ± 0.06 | 0.95 ± 0.06 | 1 ± 0.06 |  |  |  | 
33 | C=CCCCCC [1-heptene] + CCCCn1cc[n+](C)c1.COP(=O)([O-])OC | 19.6 ± 1.3 | 19.4 ± 1.3 | 19.1 ± 1.3 | 18.9 ± 1.3 |  |  |  | 
34 | c1ccccc1 [benzene] + CCCCn1cc[n+](C)c1.CS(=O)(=O)[O-] | 3.08 ± 0.21 | 3.19 ± 0.22 | 3.29 ± 0.22 | 3.46 ± 0.24 |  |  |  | 
35 | C=CCCCCCCCC [1-decene] + CCCCn1cc[n+](C)c1.[Cl-] | 323 ± 22 | 306 ± 21 | 285 ± 20 | 277 ± 19 |  |  |  | 
